Measured values from patent US6858591B2, “Antibiotic AA 896 analogs” (Wyeth Holdings Corporation, priority 2001, dated 2005).
In brackets after ≈: the same amount, converted by molar mass. Where two headings read alike, the source gives them in different places.

What was measured:
Experiment in all cases: In vitro MIC, broth dilution
Format in all cases: cell-based
E. coli GC 3226 = settings: Escherichia coli, GC3226
E. coli GC 4559 = settings: Escherichia coli, GC4559
C. albicans GC 3066 = settings: Candida albicans, GC3066
P. aeruginosa GC 4532 = settings: Pseudomonas aeruginosa, GC4532
S. aureus GC 2216 = settings: Staphylococcus aureus, GC2216
In short: (§1)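 Susceptibility testing used the NCCLS broth dilution method. Antibiotic spanned 64-0.06 μg/ml against an inoculum of 5×10^5 CFU/ml in Mueller-Hinton II; after 18 hours at 35° C the lowest concentration without growth gave the MIC.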

E. faecalis GC 4555 = settings: Enterococcus faecalis, GC4555
In short: as §1

S. aureus GC 1131 = settings: Staphylococcus aureus, GC1131
In short: as §1

E. faecalis GC 2242 = settings: Enterococcus faecalis, GC2242
In short: as §1

CNS GC 4547 = system: CNS GC 4547
In short: as §1

CNS GC 4537 = system: CNS GC 4537
In short: as §1

S. aureus GC 4536 = settings: Staphylococcus aureus, GC4536
In short: as §1

E. faecalis GC 842 = settings: Enterococcus faecalis, GC842
In short: as §1

CNS GC 4538 = system: CNS GC 4538
In short: as §1

E. coli GC 2203 = settings: Escherichia coli, GC2203
P. aeruginosa GC 2214 = settings: Pseudomonas aeruginosa, GC2214
E. coli GC 4560 = settings: Escherichia coli, GC4560
K. pneumoniae GC 4534 = settings: Klebsiella pneumoniae, GC4534
S. marcescens GC 4077 = settings: Serratia marcescens, GC4077
M. morganii GC 4531 = settings: Morganella morganii, GC4531
E. cloacae GC 3783 = settings: Enterobacter cloacae, GC3783
[1] = C. albicans GC 3066, read-out: MIC
[2] = P. aeruginosa GC 4532, read-out: MIC
[3] = S. aureus GC 2216, read-out: MIC
[4] = E. faecalis GC 4555, read-out: MIC
[5] = S. aureus GC 1131, read-out: MIC
[6] = E. faecalis GC 2242, read-out: MIC
[7] = S. aureus GC 4536, read-out: MIC
[8] = E. faecalis GC 842, read-out: MIC
[9] = P. aeruginosa GC 2214, read-out: MIC
[10] = K. pneumoniae GC 4534, read-out: MIC
[11] = S. marcescens GC 4077, read-out: MIC
[12] = M. morganii GC 4531, read-out: MIC
[13] = E. cloacae GC 3783, read-out: MIC

Structure (SMILES)	MIC (E. coli GC 3226; E. coli GC 3226, read-out: MIC)	MIC (E. coli GC 4559; E. coli GC 4559, read-out: MIC)	MIC (C. albicans GC 3066; [1])	MIC (P. aeruginosa GC 4532; [2])	MIC (S. aureus GC 2216; [3])	MIC (E. faecalis GC 4555; [4])	MIC (S. aureus GC 1131; [5])	MIC (E. faecalis GC 2242; [6])	MIC (CNS GC 4547; CNS GC 4547, read-out: MIC)	MIC (CNS GC 4537; CNS GC 4537, read-out: MIC)	MIC (S. aureus GC 4536; [7])	MIC (E. faecalis GC 842; [8])	MIC (CNS GC 4538; CNS GC 4538, read-out: MIC)	MIC (E. coli GC 2203; E. coli GC 2203, read-out: MIC)	MIC (P. aeruginosa GC 2214; [9])	MIC (E. coli GC 4560; E. coli GC 4560, read-out: MIC)	MIC (K. pneumoniae GC 4534; [10])	MIC (S. marcescens GC 4077; [11])	MIC (M. morganii GC 4531; [12])	MIC (E. cloacae GC 3783; [13])	other results
COc1ccc(Cn2c(=O)ccn([C@@H]3OC([C@H](O)[C@H](NCCCNC(=O)[C@@H](N)CCC(=O)OC(C)(C)C)C(=O)OC(C)(C)C)[C@@H](O[Si](C)(C)C(C)(C)C)[C@H]3O[Si](C)(C)C(C)(C)C)c2=O)cc1 (stereo partly drawn) [Example 21, tert-Butyl (4S)-4-amino-5-[(3-{[(1S,2R)-2-[(3R,4R,5R)-3,4-bis{[tert-butyl(dimethyl)silyl]oxy}-5-(3-(4-methoxybenzyl)-2,4-dioxo-3,4-dihydro-1(2H)-pyrimidinyl)tetrahydro-2-furanyl]-1-(tert-butoxycarbonyl)-2-hydroxyethyl]amino}propyl)amino]-5-oxopentanoate]	> 128 µg/mL	> 128 µg/mL	> 128 µg/mL	> 128 µg/mL	> 128 µg/mL	> 128 µg/mL	> 128 µg/mL	> 128 µg/mL	> 128 µg/mL	> 128 µg/mL	> 128 µg/mL	> 128 µg/mL	> 128 µg/mL	> 128 µg/mL	> 128 µg/mL	> 128 µg/mL	> 128 µg/mL	> 128 µg/mL	> 128 µg/mL	> 128 µg/mL	–
COc1ccc(Cn2c(=O)ccn([C@@H]3OC([C@H](O)[C@H](NC(=O)CCCCCCCCCCNC(=O)OCC4c5ccccc5-c5ccccc54)C(=O)OC(C)(C)C)[C@@H](O[Si](C)(C)C(C)(C)C)[C@H]3O[Si](C)(C)C(C)(C)C)c2=O)cc1 (stereo partly drawn) [Example 22, tert-Butyl (2S,3R)-3-[(3R,4R,5R)-3,4-bis{[tert-butyl(dimethyl)silyl]oxy}-5-(3-(4-methoxybenzyl)-2,4-dioxo-3,4-dihydro-1(2H)-pyrimidinyl)tetrahydro-2-furanyl]-2-[(11-{[(9H-fluoren-9-ylmethoxy)carbonyl]amino}undecanoyl)-amino]-3-hydroxypropanoate]	–	–	–	–	–	–	–	–	–	–	–	–	–	–	–	–	–	–	–	–	MIC (E. coli GC 3226): > 128 µg/mL; MIC (E. coli GC 4559): > 128 µg/mL; MIC (C. albicans GC 3066): > 128 µg/mL; MIC (P. aeruginosa GC 4532): > 128 µg/mL; MIC (S. aureus GC 2216): > 128 µg/mL; MIC (E. faecalis GC 4555): > 128 µg/mL; MIC (S. aureus GC 1131): > 128 µg/mL; MIC (E. faecalis GC 2242): > 128 µg/mL; MIC (CNS GC 4547): > 128 µg/mL; MIC (CNS GC 4537): > 128 µg/mL; MIC (S. aureus GC 4536): > 128 µg/mL; MIC (E. faecalis GC 842): > 128 µg/mL; MIC (CNS GC 4538): > 128 µg/mL; MIC (E. coli GC 2203): > 128 µg/mL; MIC (P. aeruginosa GC 2214): > 128 µg/mL; MIC (E. coli GC 4560): > 128 µg/mL; MIC (K. pneumoniae GC 4534): > 128 µg/mL; MIC (S. marcescens GC 4077): > 128 µg/mL; MIC (M. morganii GC 4531): > 128 µg/mL; MIC (E. cloacae GC 3783): > 128 µg/mL
COc1ccc(Cn2c(=O)ccn([C@@H]3OC([C@H](O)[C@H](NC(=O)CCCCCCCCCCN)C(=O)OC(C)(C)C)[C@@H](O[Si](C)(C)C(C)(C)C)[C@H]3O[Si](C)(C)C(C)(C)C)c2=O)cc1 (stereo partly drawn) [Example 23, tert-Butyl (2S,3R)-2-[(11-aminoundecanoyl)amino]-3-[(3R,4R,5R)-3,4-bis{[tert-butyl(dimethyl)silyl]oxy}-5-(3-(4-methoxybenzyl)-2,4-dioxo-3,4-dihydro-1(2H)-pyrimidinyl)tetrahydro-2-furanyl]-3-hydroxypropanoate]	> 128 µg/mL	> 128 µg/mL	128 µg/mL (≈ 141 µM)	128 µg/mL (≈ 141 µM)	128 µg/mL (≈ 141 µM)	128 µg/mL (≈ 141 µM)	> 128 µg/mL	128 µg/mL (≈ 141 µM)	> 128 µg/mL	128 µg/mL (≈ 141 µM)	128 µg/mL (≈ 141 µM)	128 µg/mL (≈ 141 µM)	128 µg/mL (≈ 141 µM)	> 128 µg/mL	128 µg/mL (≈ 141 µM)	128 µg/mL (≈ 141 µM)	> 128 µg/mL	128 µg/mL (≈ 141 µM)	128 µg/mL (≈ 141 µM)	> 128 µg/mL	–
COc1ccc(Cn2c(=O)ccn([C@@H]3OC([C@H](O)[C@H](NCCCNC(=O)CCCCCCCCCCNC(=O)OCC4c5ccccc5-c5ccccc54)C(=O)OC(C)(C)C)[C@@H](O[Si](C)(C)C(C)(C)C)[C@H]3O[Si](C)(C)C(C)(C)C)c2=O)cc1 (stereo partly drawn) [Example 24, tert-Butyl (21S)-21-[(R)-[(3R,4R,5R)-3,4-bis{[tert-butyl(dimethyl)silyl]oxy}-5-(3-(4-methoxybenzyl)-2,4-dioxo-3,4-dihydro-1(2H)-pyrimidinyl)tetrahydro-2-furanyl](hydroxy)methyl]-1-(9H-fluoren-9-yl)-3,15-dioxo-2-oxa-4,16,20-triazadocosan-22-oate]	–	–	–	–	–	–	–	–	–	–	–	–	–	–	–	–	–	–	–	–	MIC (E. coli GC 3226): > 128 µg/mL; MIC (E. coli GC 4559): > 128 µg/mL; MIC (C. albicans GC 3066): 128 µg/mL (≈ 108 µM); MIC (P. aeruginosa GC 4532): 128 µg/mL (≈ 108 µM); MIC (S. aureus GC 2216): > 128 µg/mL; MIC (E. faecalis GC 4555): > 128 µg/mL; MIC (S. aureus GC 1131): > 128 µg/mL; MIC (E. faecalis GC 2242): 128 µg/mL (≈ 108 µM); MIC (CNS GC 4547): > 128 µg/mL; MIC (CNS GC 4537): > 128 µg/mL; MIC (S. aureus GC 4536): > 128 µg/mL; MIC (E. faecalis GC 842): > 128 µg/mL; MIC (CNS GC 4538): > 128 µg/mL; MIC (E. coli GC 2203): > 128 µg/mL; MIC (P. aeruginosa GC 2214): 128 µg/mL (≈ 108 µM); MIC (E. coli GC 4560): 128 µg/mL (≈ 108 µM); MIC (K. pneumoniae GC 4534): > 128 µg/mL; MIC (S. marcescens GC 4077): 128 µg/mL (≈ 108 µM); MIC (M. morganii GC 4531): 128 µg/mL (≈ 108 µM); MIC (E. cloacae GC 3783): > 128 µg/mL
COc1ccc(Cn2c(=O)ccn([C@@H]3OC([C@H](O)[C@H](NCCCNC(=O)CCCCCCCCCCN)C(=O)OC(C)(C)C)[C@@H](O[Si](C)(C)C(C)(C)C)[C@H]3O[Si](C)(C)C(C)(C)C)c2=O)cc1 (stereo partly shown) [Example 25]	> 128 µg/mL	> 128 µg/mL	128 µg/mL (≈ 133 µM)	128 µg/mL (≈ 133 µM)	128 µg/mL (≈ 133 µM)	128 µg/mL (≈ 133 µM)	128 µg/mL (≈ 133 µM)	64 µg/mL (≈ 66.5 µM)	128 µg/mL (≈ 133 µM)	64 µg/mL (≈ 66.5 µM)	128 µg/mL (≈ 133 µM)	128 µg/mL (≈ 133 µM)	64 µg/mL (≈ 66.5 µM)	> 128 µg/mL	128 µg/mL (≈ 133 µM)	128 µg/mL (≈ 133 µM)	> 128 µg/mL	128 µg/mL (≈ 133 µM)	128 µg/mL (≈ 133 µM)	> 128 µg/mL	–
